Laboratory results reported in PMC11676886 (Pharmaceutics, 2024).
In brackets after ≈: the same amount, converted by molar mass.

Tests used:
physchem = type: physicochemical
Experimental: The mobile phase consisted of 50% acetonitrile and 50% purified water with a flow rate set to 1 mL/min and a column temperature set to 30 °C. The injection volume was 20 µL analyzed at a wavelength set to 230 nm for all analytical measurements.
Samples were prepared by the shake-flask method in glass vials containing 2 mg drug compound and 1 mL dispersion medium consisting of either buffer solutions (50 mM acetate buffer, pH 4.0 or 50 mM citric buffer, pH 3.0) or stabilizer solutions containing 1%, 2%, or 3% polysorbate 20 or vitamin E TPGS dissolved in the buffer solutions. The samples were rotated for 24 h at 40 rpm on a Multi-Rotator (PTR-60, Grant-Bio, Grant Instruments, Cambridgeshire, UK) while stored at 40 °C and protected from light. Samples were prepared in triplicate (n = 3). After equilibration, the samples were filtered with a 0.22 µm hydrophobic polytetrafluoroethylene membrane (VWR International, LLC, Radnor, PA, USA) with sampling tools equilibrated to 40 °C while the clear supernatant was diluted to an appropriate concentration with the mobile phase (50:50 acetonitrile and purified water) and analyzed by the method described above.

[1] = set-up: method as in doi:10.1016/j.jddst.2024.105605; settings: 4% (w/v) polysorbate 20; cited from earlier work

In the case of `COc1ccc2c(c1)c(CC(=O)O)c(C)n2C(=O)c1ccc(Cl)cc1` [indomethacin], the solubility at 24 h (physchem; 40 °C, pH 3, aqueous buffer, thermodynamic from solid) is reported as 2 µg/mL (≈ 5.59 µM), the solubility at 24 h (physchem; 40 °C, pH 4, aqueous buffer, thermodynamic from solid) is reported as 3 µg/mL (≈ 8.38 µM) and the solubility at 24 h (physchem; pH 4) is reported as 640 µg/mL (≈ 1790 µM). For the same compound, the solubility [1] was “approximately 0.70 mg/mL”.
